Measurements taken from patent publication US5578725A, “Delta opioid receptor antagonists” (priority 1995, dated 1996).
Values joined by “and” are separate entries in the source; they are usually repeats but may differ in a detail not shown here. Equal values may be shown once. “Also recorded” adds a separate entry of the source. Where a name gives a salt, the structure may show the parent alone. Read-outs that look alike come from different tables or passages of the source.

Key:
μ opioid receptor = μ opioid receptor (Cavia porcellus, UniProt A0ACM8Q262); conditions: GPI, morphine, antagonist 100 nM
μ = target: T1, μ (Mus musculus, UniProt P42866); assay: Tail-flick assay, antagonism of morphine (μ) antinociception; assay type: in vivo, male Swiss-Webster mice; conditions: for ED50 Ratio (95% C.L.): ED50 with antagonist/control ED50, morphine s.c., antagonist 20 pmol/kg i.c.v.
T1 construct: male Swiss-Webster mice; from tissue; host or cells: living mouse (male Swiss-Webster)

δ1 [1] = target: δ1 (Mus musculus, UniProt P32300); conditions: for ED50 Ratio (95% C.L.): ED50 with antagonist/control ED50, DPDPE i.c.v.; for antagonist potency, central vs peripheral delivery (in words): central (i.c.v.) vs peripheral (i.v.); for Dose required to double the ED50 of DPDPE, i.c.v. / Dose required to double the ED50 of DPDPE, i.v.: antagonist dose/(ED50 ratio - 1); for antagonism of DPDPE antinociception (in words): i.v. or i.c.v., mice
κ [2] = target: T2, κ (Cavia porcellus, UniProt P41144); assay: Binding to κ sites, competition with [3H]U69593, guinea pig brain membranes; conditions: geometric mean of three replicates
T2 construct: Guinea Pig Brain Membranes; from tissue; host or cells: guinea pig brain membranes
Procedure: (§1) The opioid receptor affinities of the target compounds were determined on guinea pig membranes employing a modification of the method of Werling et al., J. Pharmacol. Exp. Ther., 233, 722 (1986).

δ2 [3] = assay: biochemical; assay type: binding, guinea pig; conditions: DSLET vs DPDPE
Procedure: as §1

δ1 [4] = assay: biochemical; assay type: binding, guinea pig; conditions: for preference between δ1 and δ2 putative binding sites (in words): [3H]DPDPE vs [3H]DSLET
Procedure: as §1

δ1 [5] = target: T3, δ1 (Cavia porcellus, UniProt A0A286XTF2); assay: biochemical; assay type: binding, guinea pig
T3 construct: Guinea Pig Brain Membranes; from tissue; host or cells: guinea pig brain membranes
Procedure: as §1

κ [6] = target: T4, κ (Mus musculus, UniProt P33534); assay type: in vivo, male Swiss-Webster mice; conditions: for ED50 Ratio (95% C.L.): mouse, in vivo
T4 construct: male Swiss-Webster mice; from tissue; host or cells: living mouse (male Swiss-Webster)

δ2 [7] = target: T5, δ2 (Mus musculus, UniProt P32300); assay: Tail-flick assay, antagonism of DSLET (δ2) antinociception; assay type: in vivo, male Swiss-Webster mice; conditions: for ED50 Ratio (95% C.L.): ED50 with antagonist/control ED50, DSLET i.c.v., antagonist 20 pmol/kg i.c.v.
T5 construct: male Swiss-Webster mice; from tissue; host or cells: living mouse (male Swiss-Webster)

κ opioid receptor = κ opioid receptor (Cavia porcellus, UniProt P41144); conditions: GPI, ethylketazocine, antagonist 100 nM
δ opioid receptors = δ opioid receptors (Mus musculus, UniProt P32300); assay: Antagonism of DADLE (δ) in electrically stimulated mouse vas deferens (MVD) preparation; conditions: for Kb: Ke (nM); for IC50 ratio DADLE(δ): 15 min preincubation
δ2 [8] = target: T6, δ2 (Cavia porcellus, UniProt A0A286XTF2); assay: biochemical; assay type: binding, guinea pig
T6 construct: Guinea Pig Brain Membranes; from tissue; host or cells: guinea pig brain membranes
Procedure: as §1

[9] = compared with 2 or 3; cited from earlier work
δ2 [10] = conditions: Jiang et al.; Korlipara et al.; cited from earlier work
[11] = MVD, DADLE, Ke = [antagonist]/(IC50 ratio - 1), antagonist 100 nM
[12] = MVD DADLE IC50 ratio / GPI EK IC50 ratio
[13] = MVD DADLE IC50 ratio / GPI morphine IC50 ratio
[14] = using calculated IC50 ratio (238) based on 100 nM of 7

SMILES	IC50 ratio M(μ) (μ opioid receptor)	Ki Selectivity Ratio δ1/δ2 (δ1 [4])	IC50 ratio EK (κ) (κ opioid receptor)	Kb (δ opioid receptors; [11])	IC50 Selectivity Ratio δ/κ (δ opioid receptors; [12])	IC50 Selectivity Ratio δ/μ (δ opioid receptors; [13])	IC50 ratio DADLE(δ) (δ opioid receptors; MVD, antagonist 100 nM)	Ki Selectivity Ratio κ/δ1 (δ1 [4])	Ki Selectivity Ratio μ/δ1 (δ1 [4])	Ki (δ1 [5]) [nM]	Ki (δ2 [8]) [nM]	further results
O=C(O)CNC(=O)c1cccc2c3c([nH]c12)[C@@H]1Oc2c(O)ccc4c2[C@@]12CCN(CC1CC1)[C@H](C4)[C@]2(O)C3 [Compound 2, 7'-(Carboxamidoglycine)-17-(cyclopropylmethyl)-6,7-dehydro-3,14-dihydroxy-4,5α-epoxy-6,7,2',3'-indolomorphinan hydrochloride]	1.5 ± 0.1	8.2	1.1 ± 0.2	3.2 nM and 1 to 5 nM	30	21	32 ± 8					ED50 Ratio (95% C.L.) (μ): 0.9 (0.8-1.1); antagonism of morphine antinociception (in words) (μ; mice): No significant antagonism; ED50 Ratio (95% C.L.) (δ1 [1]; antagonist 20 pmol/kg i.c.v.): 5.3 (3.6-7.7); ED50 Ratio (95% C.L.) (δ1 [1]; antagonist 0.9 μmol/kg i.v.): 2.7 (1.9-4.0); antagonist potency, central vs peripheral delivery (in words) (δ1 [1]): highly potent δ opioid antagonists when administered centrally, and many orders of magnitude less potent when delivered by the peripheral route; Dose required to double the ED50 of DPDPE, i.c.v. (δ1 [1]): 4.7 pmol/kg; antagonism of DPDPE antinociception (in words) (δ1 [1]): effectively antagonized the antinociceptive effect of the δ1 agonist, DPDPE; Dose required to double the ED50 of DPDPE, i.v. (δ1 [1]): 0.53 µmol/kg; in vivo δ subtype selectivity (in words) (δ1 [1]; mouse, in vivo): antagonized the δ1 agonist, DPDPE, but not the δ2 agonist, DSLET; i.v./i.c.v. dose ratio relative to that of NTI (times greater) (δ1 [1]): 15; Ki (κ [2]): 162 nM; factor by which compound competed more effectively with [3H]DSLET than with [3H]DPDPE for δ sites (δ2 [3]): 8-10; preference between δ1 and δ2 putative binding sites (in words) (δ1 [4]): greater affinity for δ2 relative to δ1 putative binding sites; affinity for δ1 sites relative to NTI (times greater) (δ1 [5]): 2 times; antagonism of U50488 antinociception (in words) (κ [6]; mice): No significant antagonism; ED50 Ratio (95% C.L.) (κ [6]): 0.8 (0.7-0.9); ED50 Ratio (95% C.L.) (δ2 [7]): 1.1 (0.8-1.6); antagonism of DSLET antinociception (in words) (δ2 [7]; mice): No significant antagonism
O=C(O)C[C@H](NC(=O)c1cccc2c3c([nH]c12)[C@@H]1Oc2c(O)ccc4c2[C@@]12CCN(CC1CC1)[C@H](C4)[C@]2(O)C3)C(=O)O [Compound 3, 7'-(Carboxamido-L-aspartate)-17-(cyclopropylmethyl)-6,7-dehydro-3,14-dihydroxy-4,5α-epoxy-6,7,2',3'-indolomorphinan hydrochloride]	1.3 ± 0.5	0.3	2.1 ± 0.6	1.1 nM and 1 to 5 nM	43	67	89 ± 20	6246	2574	0.14	0.41	ED50 Ratio (95% C.L.) (μ): 1.0 (0.7-1.5); ED50 Ratio (95% C.L.) (δ1 [1]; antagonist 0.8 μmol/kg i.v.): 2.3 (1.7-3.1); ED50 Ratio (95% C.L.) (δ1 [1]; antagonist 20 omol/kg (i.c.v.) as printed): 2.6 (2.0-3.6); antagonist potency, central vs peripheral delivery (in words) (δ1 [1]): highly potent δ opioid antagonists when administered centrally, and many orders of magnitude less potent when delivered by the peripheral route; Dose required to double the ED50 of DPDPE, i.c.v. (δ1 [1]): 12.5 pmol/kg; antagonism of DPDPE antinociception (in words) (δ1 [1]): selectively antagonized DPDPE; Dose required to double the ED50 of DPDPE, i.v. (δ1 [1]): 0.62 µmol/kg; in vivo δ subtype selectivity (in words) (δ1 [1]; mouse, in vivo): antagonized the δ1 agonist, DPDPE, but not the δ2 agonist, DSLET; Ratio (i.v./i.c.v.) of doses required to produce equivalent antagonism of DPDPE-induced antinociception (δ1 [1]; mouse, in vivo, hydrochloride): 49,600 and > 49,000; i.v./i.c.v. dose ratio relative to that of NTI (times greater) (δ1 [1]): 7; preference between δ1 and δ2 putative binding sites (in words) (δ1 [4]; hydrochloride): modest preference for [^3 H]DPDPE sites; also recorded: modest preference for δ1 over δ2 sites; ED50 Ratio (95% C.L.) (κ [6]): 0.7 (0.4-1.2); ED50 Ratio (95% C.L.) (δ2 [7]): 0.5 (0.3-1.1)
NCCC[C@H](NC(=O)c1cccc2c3c([nH]c12)[C@@H]1Oc2c(O)ccc4c2[C@@]12CCN(CC1CC1)[C@H](C4)[C@]2(O)C3)C(=O)O [Compound 4, 7'-(Carboxamido L-ornithine)-17-(cyclopropylmethyl)-6,7-dehydro-3,14-dihydroxy-4,5α-epoxy-6,7,2',3'-indolomorphinan hydrochloride]	3.0 ± 1	11.3	0.9 ± 0.0	1.8 nM and 1 to 5 nM	63	20	58 ± 15	320	756	0.18	0.015	factor by which compound competed more effectively with [3H]DSLET than with [3H]DPDPE for δ sites (δ2 [3]): 8-10; preference between δ1 and δ2 putative binding sites (in words) (δ1 [4]): greater affinity for δ2 relative to δ1 putative binding sites
N=C(N)NCCC[C@H](NC(=O)c1cccc2c3c([nH]c12)[C@@H]1Oc2c(O)ccc4c2[C@@]12CCN(CC1CC1)[C@H](C4)[C@]2(O)C3)C(=O)O [Compound 5, 7'-(Carboxamido-L-arginine)-17-(cyclopropylmethyl)-6,7-dehydro-3,14-dihydroxy-4,5α-epoxy-6,7,2',3'-indolomorphinan hydrochloride]	1.3 ± 0.6	1.9	1.2 ± 0.5	3.3 nM and 1 to 5 nM	27	24	31 ± 5	1181	2096	0.16	0.083	
NCCCC[C@H](NC(=O)c1cccc2c3c([nH]c12)[C@@H]1Oc2c(O)ccc4c2[C@@]12CCN(CC1CC1)[C@H](C4)[C@]2(O)C3)C(=O)O [Compound 6, 7'-(N(α)-Carboxamido-L-lysine)-17-(cyclopropylmethyl)-6,7-dehydro-3,14dihydroxy-4,5α-epoxy-6,7,2',3'-indolomorphinan hydrochloride]	1.0 ± 0.4	0.4	1.1 ± 0.0	5.2 nM and 1 to 5 nM	20	20	20 ± 4	134	719	0.3	0.75	preference between δ1 and δ2 putative binding sites (in words) (δ1 [4]; hydrochloride): modest preference for [^3 H]DPDPE sites; also recorded: modest preference for δ1 over δ2 sites
O=C(O)c1cccc2c3c([nH]c12)[C@@H]1Oc2c(O)ccc4c2[C@@]12CCN(CC1CC1)[C@H](C4)[C@]2(O)C3 [Compound 7, 7'-Carboxy-17-(cyclopropylmethyl)-6,7-dehydro-3,14-dihydroxy-4,5α-epoxy-6,7,2',3'-indolomorphinan hydrochloride]	2.0 ± 0.3	0.8	1.0 ± 0.2					3246	1846	0.013	0.016	Ki (κ [2]): 42 nM; affinity for δ1 sites relative to NTI (times greater) (δ1 [5]): 6 times; affinity for δ sites (in words) (δ1 [5]; δ1 and δ2 sites, guinea pig membranes): high affinity for δ sites; δ opioid receptor antagonist potency (in words) (δ opioid receptors): δ antagonist potency approaching that of NTI; Kb (δ opioid receptors; MVD, DADLE, concentration of 7 was 10 nM): 0.4 nM; calculated IC50 ratio based on 100 nM of 7 (δ opioid receptors; MVD, DADLE, calculated for 100 nM): 238; IC50 Selectivity Ratio δ/κ (δ opioid receptors; [14]): 231; IC50 Selectivity Ratio δ/μ (δ opioid receptors; [14]): 122
Oc1ccc2c3c1OC1c4c(c5ccccc5n4Cc4ccccc4)CC4(O)C(C2)N(CC2CC2)CCC314 (stereo not drawn) [benzylnaltrindole]												lipophilicity (in words) [9]: considerably more lipophilic than 2 or 3; in vivo δ subtype selectivity (in words) (δ2 [10]): δ2 -selective antagonists
